Experimental data reported in patent US20200199681A1, “MDA-7 CANCER THERAPIES AND METHODS OF DETECTING BIOMOLECULES” (VIRGINIA COMMONWEATLH UNIVERSITY, priority 2016, published 2020).

Key:
miR-221 = experiment: level of miR-221 by real time PCR (RQ-PCR, taqman probe); type: cell-based, human; details: for miR-221 levels: low doses alone: ATO 1 μM, hydrogen peroxide 10 μM, pyocyanin 50 μM
cancer cells = details: cited from earlier work
Hela and DU-145 cells = details: cited from earlier work
U2OS cells = details: cited from earlier work
[1] = tested on: non-cancerous immortalized NOK cells; details: cited from earlier work

For CC(=O)N[C@@H](CS)C(=O)O [NAC, N-acetyl cysteine], the “effect on down regulation of miR-221 by ROS inducer with Ad.mda-7” value (miR-221; MDA-MB-231 cells, pretreatment for 12 hours) is listed as “abrogated down regulation of miR-221” and the “cell death mediated by mda-7/IL-24” value (cancer cells) is listed as “inhibits”.

For C[S+]([O-])c1ccc(-c2nc(-c3ccncc3)c(-c3ccc(F)cc3)[nH]2)cc1 (stereo not drawn) [SB203580], the Ad.mda-7-induced apoptosis (cancer cells) is listed as “inhibits”.

In the case of OO [hydrogen peroxide], the miR-221 levels (miR-221; MDA-MB-231 cells) is reported as “did not alter”.

In the case of Cn1c2cccc(=O)c-2nc2ccccc21 [pyocyanin], the miR-221 levels (miR-221; MDA-MB-231 cells) is reported as “did not alter”.

For Arsenic trioxide, the miR-221 levels (miR-221; MDA-MB-231 cells) was “did not alter”.

B1: His-MDA-7: purified recombinant His tagged MDA-7/IL-24 protein (protein, UniProt Q13007 52-206, looked up)
Interleukin-24: QEFHFGPCQVKGVVPQKLWEAFWAVKDTMQAQDNITSARLLQQEVLQNVSDAESCYLVHTLLEFYLKTVFKNYHNRTVEVRTLKSFSTLANNFVLIVSQLQPSQENEMFSIRDSAHRRFLLFRRAFKQLDVEAALTKALGEVDILLTWMQKFYKL
modifications: His tag
notes: purified recombinant His tagged MDA-7/IL-24 protein
With B1 the miR-221 expression (miR-221; A549 cells (lack cognate receptor pairs)) was “remained unchanged”, the miR-221 expression (miR-221; A549 cells overexpressing IL-20R2 or IL-22R1) was “sensitive to miR-221 down regulation” and the miR-221 expression (miR-221; DU-145 cells (both receptor types)) was “decreased”.

B2: M1: MDA-7/IL-24 deletion mutant, signal peptide deleted (protein, UniProt Q13007 52-206, looked up)
Interleukin-24: QEFHFGPCQVKGVVPQKLWEAFWAVKDTMQAQDNITSARLLQQEVLQNVSDAESCYLVHTLLEFYLKTVFKNYHNRTVEVRTLKSFSTLANNFVLIVSQLQPSQENEMFSIRDSAHRRFLLFRRAFKQLDVEAALTKALGEVDILLTWMQKFYKL
modifications: signal peptide deleted
notes: MDA-7/IL-24 deletion mutant, signal peptide deleted
For B2, the “tumor inhibitory effects of MDA-7/IL-24” value (Hela and DU-145 cells) is given as “did not disrupt the tumor inhibitory effects”.

B3: Full length MDA-7/IL-24: full-length transcript with all 7 exons (protein, UniProt Q13007 1-206, looked up)
chain: MNFQQRLQSLWTLARPFCPPLLATASQMQMVVLPCLGFTLLLWSQVSGAQGQEFHFGPCQVKGVVPQKLWEAFWAVKDTMQAQDNITSARLLQQEVLQNVSDAESCYLVHTLLEFYLKTVFKNYHNRTVEVRTLKSFSTLANNFVLIVSQLQPSQENEMFSIRDSAHRRFLLFRRAFKQLDVEAALTKALGEVDILLTWMQKFYKL
modifications: full-length
notes: full-length transcript with all 7 exons
For B3, the U2OS cell viability (U2OS cells) is given as “capable of reducing U2OS cell viability” and the “viability of NOK cells” value [1] is given as “no effect”.
